Experimental data from PubChem BioAssay AID276 (DTP/NCI, 2004).
Several values for one entry are separate records, joined by “and”; a condition that tells them apart may be missing. Equal entries are not always repeated. Toxic doses and inconclusive results are not listed.

Tested on: B6C3F1 mice, Lewis lung carcinoma iv, survival T/C
Assay: NCI In Vivo Anticancer Drug Screen. Data for tumor model Lewis Lung Carcinoma (intravenous) in B6C3F1 mice
Details: endpoint: median survival time, higher = longer survival
How it was run: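 Mice carrying transplanted tumors received test compound; survival in the treated group was divided by that of the vehicle-treated control group to give the T/C value.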

[1] = dose: 12.5 mg/kg/injection, schedule: Q01DX009 (ip), vehicle: Klucel (hydroxypropylcellulose) (HPC)
[2] = dose: 25.0 mg/kg/injection, schedule: Q01DX009 (ip), vehicle: Klucel (hydroxypropylcellulose) (HPC)
[3] = dose: 50.0 mg/kg/injection, schedule: Q01DX009 (ip), vehicle: Klucel (hydroxypropylcellulose) (HPC)
[4] = dose: 2.0 mg/kg/injection, schedule: Q01DX009 (ip), vehicle: saline
[5] = dose: 6.25 mg/kg/injection, schedule: Q01DX009 (ip), vehicle: water
[6] = dose: 12.5 mg/kg/injection, schedule: Q01DX009 (ip), vehicle: water
[7] = dose: 25.0 mg/kg/injection, schedule: Q01DX009 (ip), vehicle: water
[8] = dose: 25.0 mg/kg/injection, schedule: Q01DX009 (ip), vehicle: saline
[9] = dose: 0.12 mg/kg/injection, schedule: Q01DX009 (ip), vehicle: saline
[10] = dose: 0.5 mg/kg/injection, schedule: Q01DX009 (ip), vehicle: water
[11] = dose: 1.0 mg/kg/injection, schedule: Q01DX009 (ip), vehicle: water
[12] = dose: 50.0 mg/kg/injection, schedule: Q01DX009 (ip), vehicle: saline

C=C/C(C)=C/[C@H](C)C(=O)C[C@H](O)CC1CC(=O)NC(=O)C1
T/C (dose: 6.25 mg/kg/injection, schedule: Q01DX009 (ip), vehicle: other): 96 % of control
T/C (dose: 12.5 mg/kg/injection, schedule: Q01DX009 (ip), vehicle: other): 96 % of control
T/C (dose: 25.0 mg/kg/injection, schedule: Q01DX009 (ip), vehicle: other): 97 % of control
T/C (dose: 50.0 mg/kg/injection, schedule: Q01DX009 (ip), vehicle: other): 92 % of control
T/C (dose: 100.0 mg/kg/injection, schedule: Q01DX009 (ip), vehicle: other): 96 % of control
T/C (dose: 200.0 mg/kg/injection, schedule: Q01DX009 (ip), vehicle: other): 100 % of control

Cc1cc2nc3c(=O)[nH]c(=O)nc-3n(CC(O)C(O)C(O)C(O)CO)c2cc1C (configuration not stated)
T/C (dose: 25.0 mg/kg/injection, schedule: Q01DX009 (ip), vehicle: suspension in saline): 95 % of control
T/C (dose: 50.0 mg/kg/injection, schedule: Q01DX009 (ip), vehicle: suspension in saline): 110 % of control
T/C (dose: 100.0 mg/kg/injection, schedule: Q01DX009 (ip), vehicle: suspension in saline): 111 % of control
T/C (dose: 200.0 mg/kg/injection, schedule: Q01DX009 (ip), vehicle: suspension in saline): 115 % of control

COC1CC(C)C(OC)C2=CC(=O)C=C(NC(=O)/C(C)=C/C=C\C(C)C(OC(N)=O)/C(C)=C\C(C)C1OC)C2=O (configuration not stated)
T/C (dose: 5.0 mg/kg/injection, schedule: Q01DX009 (ip), vehicle: saline + Tween-80 + alcohol): 99 % of control
T/C (dose: 10.0 mg/kg/injection, schedule: Q01DX009 (ip), vehicle: saline + Tween-80 + alcohol): 112 % of control

CC(C)CC(=O)NC(C(=O)NC(C(=O)NC(CC(C)C)C(O)CC(=O)NC(C)C(=O)NC(CC(C)C)C(O)CC(=O)O)C(C)C)C(C)C (configuration not stated)
T/C (dose: 3.12 mg/kg/injection, schedule: Q01DX009 (ip), vehicle: Klucel (hydroxypropylcellulose) (HPC)): 95 % of control
T/C (dose: 6.25 mg/kg/injection, schedule: Q01DX009 (ip), vehicle: Klucel (hydroxypropylcellulose) (HPC)): 99 % of control
T/C [1]: 95 % of control
T/C [2]: 97 % of control
T/C [3]: 97 % of control
T/C (dose: 100.0 mg/kg/injection, schedule: Q01DX009 (ip), vehicle: Klucel (hydroxypropylcellulose) (HPC)): 95 % of control

Cc1cc(N)c2ccccc2[n+]1CCCCCCCCCC[n+]1c(C)cc(N)c2ccccc21
T/C (dose: 0.12 mg/kg/injection, schedule: Q01DX026 (ip), vehicle: dextrose): 93 % of control
T/C (dose: 0.25 mg/kg/injection, schedule: Q01DX026 (ip), vehicle: dextrose): 104 % of control
T/C (dose: 0.5 mg/kg/injection, schedule: Q01DX026 (ip), vehicle: dextrose): 96 % of control
T/C (dose: 0.75 mg/kg/injection, schedule: Q01DX009 (ip), vehicle: dextrose): 101 % of control
T/C (dose: 1.0 mg/kg/injection, schedule: Q01DX026 (ip), vehicle: dextrose): 99 % of control
T/C (dose: 1.5 mg/kg/injection, schedule: Q01DX009 (ip), vehicle: dextrose): 95 % of control
T/C (dose: 2.0 mg/kg/injection, schedule: Q01DX026 (ip), vehicle: dextrose): 103 % of control
T/C (dose: 3.0 mg/kg/injection, schedule: Q01DX009 (ip), vehicle: dextrose): 104 % of control

O=NN(CCCl)C(=O)NC1OC(CO)C(O)C(O)C1O (configuration not stated)
T/C [4]: 121 % of control

O=NN(CCCl)C(=O)NC1[C@H](O)CCC[C@@H]1O (some centres not stated)
T/C (dose: 0.32 mg/kg/injection, schedule: Q01DX009 (ip), vehicle: saline): 96 % of control
T/C (dose: 0.63 mg/kg/injection, schedule: Q01DX009 (ip), vehicle: saline): 111 % of control
T/C (dose: 1.25 mg/kg/injection, schedule: Q01DX009 (ip), vehicle: saline): 103 % of control and 116 % of control
T/C (dose: 5.0 mg/kg/injection, schedule: Q01DX009 (ip), vehicle: saline): 163 % of control and 173 % of control
T/C (dose: 10.0 mg/kg/injection, schedule: Q01DX009 (ip), vehicle: saline): 98 % of control and 118 % of control

Cc1c(N)nc([C@H](CC(N)=O)NC[C@H](N)C(N)=O)nc1C(=O)N[C@H](C(=O)N[C@H](C)[C@@H](O)CC(=O)N[C@H](C(=O)NC(O[C@@H]1O[C@@H](C)[C@@H](N)[C@@H](O)[C@H]1O)C(O)c1nc(-c2nc(C(=O)NCCCCN)cs2)cs1)[C@@H](C)O)[C@@H](O[C@@H]1O[C@@H](CO)[C@@H](O)[C@H](O)[C@@H]1O[C@H]1O[C@H](CO)[C@@H](O)[C@H](OC(N)=O)[C@@H]1O)c1c[nH]cn1 (some centres not stated)
T/C [4]: 123 % of control
T/C (dose: 8.0 mg/kg/injection, schedule: Q01DX009 (ip), vehicle: saline): 176 % of control

[Cl][Pt][Cl].[NH-]C(CO)C(=O)O (configuration not stated)
T/C [5]: 101 % of control
T/C [6]: 111 % of control
T/C [7]: 105 % of control
T/C (dose: 50.0 mg/kg/injection, schedule: Q01DX009 (ip), vehicle: water): 110 % of control

C(=N/NC1=NCCN1)/c1c2ccccc2c(/C=N\NC2=NCCN2)c2ccccc12
T/C (dose: 3.12 mg/kg/injection, schedule: Q01DX009 (ip), vehicle: saline): 110 % of control
T/C (dose: 12.5 mg/kg/injection, schedule: Q01DX009 (ip), vehicle: saline): 100 % of control
T/C [8]: 100 % of control

CC(=O)OC1=NC(C)c2c1cc(OC(C)=O)[nH]c2=O (configuration not stated)
T/C [1]: 102 % of control
T/C [2]: 98 % of control
T/C [3]: 95 % of control

CC1OC(OC2CC(O)(C(=O)CO)Cc3c(O)c4c(c(O)c32)C(=O)c2ccccc2C4=O)CC(N)C1O (configuration not stated)
T/C (dose: 0.06 mg/kg/injection, schedule: Q01DX009 (ip), vehicle: water): 110 % of control
T/C (dose: 0.12 mg/kg/injection, schedule: Q01DX009 (ip), vehicle: other): 105 % of control
T/C [9]: 108 % of control
T/C (dose: 0.12 mg/kg/injection, schedule: Q01DX009 (ip), vehicle: water): 122 % of control
T/C (dose: 0.25 mg/kg/injection, schedule: Q01DX009 (ip), vehicle: other): 113 % of control
T/C (dose: 0.25 mg/kg/injection, schedule: Q01DX009 (ip), vehicle: saline): 103 % of control
T/C (dose: 0.25 mg/kg/injection, schedule: Q01DX009 (ip), vehicle: water): 112 % of control
T/C (dose: 0.5 mg/kg/injection, schedule: Q01DX009 (ip), vehicle: saline): 110 % of control
T/C [10]: 120 % of control
T/C [11]: 173 % of control

CC(=O)N(C)C
T/C (dose: 122.5 mg/kg/injection, schedule: Q01DX009 (ip), vehicle: saline): 88 % of control
T/C (dose: 225.0 mg/kg/injection, schedule: Q01DX009 (ip), vehicle: saline): 95 % of control
T/C (dose: 450.0 mg/kg/injection, schedule: Q01DX009 (ip), vehicle: saline): 110 % of control
T/C (dose: 900.0 mg/kg/injection, schedule: Q01DX009 (ip), vehicle: saline): 100 % of control
T/C (dose: 1800.0 mg/kg/injection, schedule: Q01DX009 (ip), vehicle: saline): 93 % of control
T/C (dose: 3600.0 mg/kg/injection, schedule: Q01DX009 (ip), vehicle: saline): 104 % of control

COc1cccc2c1C(=O)c1c(O)c3c(c(O)c1C2=O)C[C@@](O)(C(=O)CO)C[C@@H]3OC1CC(N)C(O)C(C)O1 (some centres not stated)
T/C [9]: 94 % of control and 96 % of control and 98 % of control
T/C (dose: 0.13 mg/kg/injection, schedule: Q01DX009 (ip), vehicle: saline): 102 % of control
T/C [10]: 95 % of control and 100 % of control
T/C [11]: 88 % of control
T/C (dose: 2.0 mg/kg/injection, schedule: Q01DX009 (ip), vehicle: water): 90 % of control and 123 % of control
T/C (dose: 4.0 mg/kg/injection, schedule: Q01DX009 (ip), vehicle: water): 112 % of control

CCn1cnc2c(=S)nc[nH]c21
T/C (dose: 12.0 mg/kg/injection, schedule: Q01DX009 (ip), vehicle: saline): 100 % of control
T/C [8]: 99 % of control
T/C [12]: 104 % of control

NC(=O)/C=C/c1c[nH]c2nccnc12
T/C (dose: 1.56 mg/kg/injection, schedule: Q01DX009 (ip), vehicle: water): 94 % of control
T/C (dose: 3.12 mg/kg/injection, schedule: Q01DX009 (ip), vehicle: water): 88 % of control
T/C [5]: 92 % of control
T/C [6]: 94 % of control
T/C [7]: 94 % of control

CC(=O)CC(=O)CCC(=O)O
T/C [8]: 98 % of control
T/C [12]: 103 % of control
T/C (dose: 100.0 mg/kg/injection, schedule: Q01DX009 (ip), vehicle: saline): 102 % of control
T/C (dose: 200.0 mg/kg/injection, schedule: Q01DX009 (ip), vehicle: saline): 105 % of control

CC(C)CCC(=O)c1ccoc1
T/C (dose: 0.12 mg/kg/injection, schedule: Q03HX027 (ip), vehicle: saline with Tween-80): 99 % of control
T/C (dose: 0.25 mg/kg/injection, schedule: Q03HX027 (ip), vehicle: saline with Tween-80): 97 % of control
T/C (dose: 0.5 mg/kg/injection, schedule: Q03HX027 (ip), vehicle: saline with Tween-80): 109 % of control
T/C (dose: 1.0 mg/kg/injection, schedule: Q03HX027 (ip), vehicle: saline with Tween-80): 117 % of control
